Measurements published in patent US20070031511A1, “Method of treatment” (priority 2003, published 2007).
Read-outs that look alike come from different tables or passages of the source. One block for each compound: values may come before it.

What was measured:
[1] = Quenching of gastrin tryptophan fluorescence by bismuth ions; assay type: binding; conditions: pH 4.0
From the text: Values from the indicated number of independent experiments were combined to obtain the mean values (±S.E.) presented above.

CCK-2 receptor [2] = molecular target: T1, CCK-2 receptor (Homo sapiens, UniProt P32239); experiment: [125I]-BH-CCK8 displacement, CCK-2 receptor on Jurkat cells; assay type: binding
T1 sequence (P32239 1-447): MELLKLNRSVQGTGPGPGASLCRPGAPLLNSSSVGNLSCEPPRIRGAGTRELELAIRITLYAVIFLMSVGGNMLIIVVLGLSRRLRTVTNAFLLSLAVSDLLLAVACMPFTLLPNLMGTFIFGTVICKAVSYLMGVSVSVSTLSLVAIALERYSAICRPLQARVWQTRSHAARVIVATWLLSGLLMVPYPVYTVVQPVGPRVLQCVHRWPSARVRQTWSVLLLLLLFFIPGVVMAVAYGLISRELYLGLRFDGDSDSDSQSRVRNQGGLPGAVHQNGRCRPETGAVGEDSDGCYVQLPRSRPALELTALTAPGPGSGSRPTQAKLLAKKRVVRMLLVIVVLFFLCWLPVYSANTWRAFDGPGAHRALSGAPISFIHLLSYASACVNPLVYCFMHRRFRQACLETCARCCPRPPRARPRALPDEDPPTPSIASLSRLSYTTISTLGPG
Procedure: (§1) Non-specific binding was evaluated with […] of unlabelled CCK8. Incubation was stopped by adding 2 ml of ice-cold PBS containing 2% bovine serum albumin. After centrifugation, supernatants were removed and the radioactivity bound to the cell membranes was measured in a γ-counter (LKB, Wallac, Finland).

CCK-2 receptor [3] = molecular target: T1, CCK-2 receptor; experiment: Gamide-stimulated inositol phosphate production in COS-7 cells transfected with the CCK-2 receptor; assay type: cell-based; set-up: COS-7 cells transiently transfected with CCK-2 receptor cDNA; expressed in transfected cells; host or cells: COS-7
Procedure: (§2) Intracellular inositol phosphate production was determined as described previously (Qian et al, 1993). IMGE-5 cells (10^5 cells/ml) were plated in 24-multiwell culture plates in DMEM supplemented with 10% FBS, 200 IU/ml penicillin and 200 μg/ml streptomycin. 24 h later, cells were incubated with DMEM supplemented with antibiotics and Myo-[2-^3H]inositol (2.5 μCi/well) and shifted to 39° C. for 16 h. Cells were then washed with pre-warmed DMEM and incubated (20-30 minutes, 37° C.) with DMEM supplemented with 20 mM LiCl. Loaded cells were then washed in 1 ml of IP buffer (135 mM NaCl, 20 mM N-(2-hydroxyethyl)piperazine-N′-(2-ethanesulfonic acid), 2 mM CaCl2, 1.2 mM MgSO4, 1 mM ethylene glycol-bis(2-aminoethylether)-N,N,N′,N′-tetraacetic acid, 10 mM LiCl, and 0.5% bovine serum albumin, pH 7.45) and incubated with or without agonist in a final volume of 0.5 ml of IP buffer. After 1-h incubation at 37° C., the reaction was stopped by removing the incubation medium and adding 1 ml of a mixture of ethanol/HCl (2000:1; v/v). One ml of each aliquot was applied to a column containing 1.6 ml of a 1:2 (v/v) Dowex AG-1-X8 anion exchange resin in distilled water. The columns were washed with 4 ml of distilled water, followed by 4 ml of 40 mM HCOONH4, and inositol phosphates were eluted with 4 ml of 1 M HCOONH4. The radioactivity of each eluate was counted after addition of Complete phase combining system solution (Amersham, UK). For the positive control, IMGE-5 cells were incubated with a combination of 30 mM NaF and 10 μM AlCl3 under the same experimental conditions.
Gamide-stimulated inositol phosphate production was measured in COS-7 cells transfected with the CCK-2 receptor. […] Bismuth ions alone had no effect on inositol phosphate production in CCK-2 receptor-transfected COS-7 cells and HT29 cells, even at the highest concentration tested.
We then investigated the role of the individual glutamates in biological activity. The effects of the mutants GamideE7A and GamideE8,9A on inositol phosphate production in COS-7 cells transiently transfected with the CCK-2 receptor were compared.

CCK-2 receptor [4] = molecular target: T1, CCK-2 receptor; experiment: [125I]-BH-CCK8 displacement, CCK-2 receptor on transiently transfected COS-7 cells; assay type: binding; set-up: COS-7 cells transiently transfected with CCK-2 receptor cDNA; expressed in transfected cells; host or cells: COS-7
Procedure: as §1
The lines of best fit shown in FIG. 21 were obtained by nonlinear regression to a single site model with the program Sigmaplot.

[5] = system: HT29 human colorectal carcinoma cells; experiment: Ggly-stimulated inositol phosphate production in HT29 cells; assay type: cell-based
Procedure: as §2
Ggly-stimulated inositol phosphate production was measured in HT29 human colorectal carcinoma cells.

[6] = system: AGS gastric carcinoma cells; experiment: AGS cell proliferation, MTT assay; assay type: cell-based, human; conditions: treatment alone: 10 nM Ggly; 32 mol/mol Bi without Ggly; fetal calf serum positive control
[7] = read-out: Kd for binding of ferric ions to Ggly; pH 4.0; taken from Baldwin et al. (2001); cited from earlier work
Ggly receptor = experiment: [125I]-Ggly binding to the Ggly receptor on IMGE-5 cells; set-up: species or system mice
Procedure: [^125I]-Ggly binding assays were carried out by previously described methods (Yang et al, 2001). Briefly, 5×10^5 IMGE-5 cells/well were seeded in 6-well plates and grown at 33° C. for 24 hours. The cells were then serum starved and shifted to 39° C. for 24 h. […] Cells were then washed three times in ice-cold PBS and lysed with 1 M NaOH, and the amount of radioactivity bound was measured in a γ-counter.

[8] = binding in the absence of competitor, fitted, mean ± S.E.
[9] = presence and absence of 1 μM DFO
[10] = single experiment, presence and absence of 1 μM DFO

Kd ([1]; single experiment, two independent sites with identical affinities, read-out: Kd for bismuth ions, line of best fit of FIG. 11): 8.6 ± 1.2 µM | Kd ([1]; two identical independent binding sites, mean ± S.E. of 5 experiments, read-out: Bismuth Kd): 8.2 ± 0.8 µM | % Maximum Binding (Jurkat) (CCK-2 receptor [2]; [8]): 100.0 ± 3.1% | % Maximum Binding (Jurkat) (CCK-2 receptor [2]; [9]): 99.0 ± 0.4% | Ordinate intercept, FIG. 24B (CCK-2 receptor [2]; [10]): 99.6% | Increase in inositol phosphate production (CCK-2 receptor [3]; COS-7 cells transfected with the CCK-2 receptor, 10 μM AlF4−, 10 nM Gamide): 4 fold | % Maximum Binding (COS-7) (CCK-2 receptor [4]; [8]): 94.2 ± 2.4% | % Maximum Binding (COS-7) (CCK-2 receptor [4]; [9]): 81.1 ± 1.7% | Predicted ordinate intercept, FIG. 21 (CCK-2 receptor [4]; single experiment): 86.1% | Ordinate intercept, FIG. 24A (CCK-2 receptor [4]; [10]): 81.1%
Compound: CSCC[C@H](NC(=O)[C@H](Cc1c[nH]c2ccccc12)NC(=O)CNC(=O)[C@H](Cc1ccc(O)cc1)NC(=O)[C@H](C)NC(=O)[C@H](CCC(=O)O)NC(=O)[C@H](CCC(=O)O)NC(=O)[C@H](CCC(=O)O)NC(=O)[C@H](CCC(=O)O)NC(=O)[C@H](CCC(=O)O)NC(=O)[C@H](CC(C)C)NC(=O)[C@H](Cc1c[nH]c2ccccc12)NC(=O)[C@@H]1CCCN1C(=O)CNC(=O)[C@@H]1CCC(=O)N1)C(=O)N[C@@H](CC(=O)O)C(=O)N[C@@H](Cc1ccccc1)C(N)=O [Gamide]
Stimulation of inositol phosphate production (CCK-2 receptor [3]; 10 nM peptide): No significant difference was observed in the extent of stimulation

Compound: Ggly: glycine-extended gastrin17, 18 amino acid non-amidated gastrin, SEQ ID NO:4, residues 55-72 of progastrin (XGPWLEEEEEAYGWMDFG; (1)..(1) pyroglutamate; listed as Homo sapiens)
Inositol phosphate production compared to the control ([5]; HT29 cells, 10 nM Ggly): 225% | Mean Response ± SEM (% Control), proliferation of AGS cells [6]: 126.0 ± 2.3 % Control | Kd [7]: 0.6 µM

Effect on Gamide-induced inositol phosphate production (CCK-2 receptor [3]; 2, 8, and 32 moles Bi3+/mole Gamide, 10 nM Gamide): no significant effect | Effect of bismuth ions alone on inositol phosphate production (CCK-2 receptor [3]; CCK-2 receptor-transfected COS-7 cells, highest concentration tested): no effect | Effect on binding of CCK8 to the CCK-2 receptor (CCK-2 receptor [4]; 2, 8 or 32 moles/mole, transfected COS-7 cells (FIG. 16)): no effect
Compound: [Bi+3] [bismuth ions]
Effect on Ggly-induced inositol phosphate production ([5]; 2, 8, and 32 moles Bi3+/mole Ggly, 10 nM Ggly): significantly reduced this Ggly-induced stimulation | Effect of bismuth ions alone on inositol phosphate production ([5]; HT29 cells, highest concentration tested): no effect | Mean Response ± SEM (% Control), proliferation of AGS cells [6]: 102.2 ± 4.2 % Control | Inhibition of [125I]-Ggly binding (Ggly receptor; 2 moles Bi3+/mole Ggly): 50% | Inhibition of [125I]-Ggly binding (Ggly receptor; 8 or 32 moles Bi3+/mole Ggly): complete inhibition
